Measurements as given in US12473250B2, “Molecular design of new antibiotics and antibiotic adjuvants against MCR strains” (priority 2019, dated 2025).

What was measured:
[1] = system: ACBA multi-drug resistant strains; assay: MIC against multi-drug resistant strains (Table 5); format: cell-based, Acinetobacter baumannii; settings: alone
Description: MIC experiments of the antimicrobial agents were determined by a modified broth microdilution method in accordance with the Clinical and Laboratory Standards Institute (CLSI) guidelines using 96 well culture plates. In brief, serial dilutions of all plates were prepared at different concentrations (μg). The inoculum suspension was prepared by adding isolated colonies from a 18-20 hours on TSA plate into phosphate buffer (0.31 mM, pH 7.2) or in water for injection (BBraun) and adjusting the suspension to a turbidity equivalent to 0.5 McFarland Standard. Each well contained a final bacterial concentration of approximately 5×10^5 colony forming units (CFU)/mL. The plate was covered and incubated at 35° C. for 24 hours. […] For the microdilution plates, turbidity in wells can be measured at OD600 using TECAN infinite M200Pro. MIC was determined as […] concentration that gives a 99 percent inhibition.

[2] = system: various pathogens; assay: organism not typed; format: cell-based
Procedure, shortened: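 Broth microdilution MIC per CLSI: each agent alone and LC compound plus antibiotic (e.g. colistin) combined in equal amounts, serially diluted 2-fold at fixed synergy concentration.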

[3] = 6093560257 [MCR 1+, E. Coli, NDM-1]
[4] = 7103531927 [MCR 1+, E. Coli, KPC+]
[5] = 7113636863 [MCR 1+, E. Coli, NDM-1]

## Colistin
[1]; strain ACBA 1010
  MIC: 0.78 µg/mL
[1]; strain ACBA 1012
  MIC: 0.78 µg/mL
[1]; strain ACBA 43357
  MIC: 3.125 µg/mL
[1]; strain ACBA ATCC 19606
  MIC: 1.56 µg/mL
[2]; 6083655967 [MCR 1+, E. Coli]
  FOLD CHANGES [Absorbance (abs; OD 600 nm)] No Treatment [Bacteria alone]: Colistin 0.5 μg: 1.10
  FOLD CHANGES [Absorbance (abs; OD 600 nm)] No Treatment [Bacteria alone]: MIC Colistin: 19.59
  MIC: 6.25 µg/mL
[2]; [3]
  FOLD CHANGES [Absorbance (abs; OD 600 nm)] No Treatment [Bacteria alone]: Colistin 0.5 μg: 1.14
  FOLD CHANGES [Absorbance (abs; OD 600 nm)] No Treatment [Bacteria alone]: MIC Colistin: 21.59
  MIC: 6.25 µg/mL
[2]; 6123520276 [MCR 1+, E. Coli]
  FOLD CHANGES [Absorbance (abs; OD 600 nm)] No Treatment [Bacteria alone]: Colistin 0.5 μg: 1.04
  FOLD CHANGES [Absorbance (abs; OD 600 nm)] No Treatment [Bacteria alone]: MIC Colistin: 20.10
  MIC: 6.25 µg/mL
[2]; 7023436560 [MCR 1+, E. Coli]
  FOLD CHANGES [Absorbance (abs; OD 600 nm)] No Treatment [Bacteria alone]: Colistin 0.5 μg: 1.14
  FOLD CHANGES [Absorbance (abs; OD 600 nm)] No Treatment [Bacteria alone]: MIC Colistin: 18.70
  MIC: 6.25 µg/mL
[2]; 7023444207 [MCR 1+, E. Coli]
  FOLD CHANGES [Absorbance (abs; OD 600 nm)] No Treatment [Bacteria alone]: Colistin 0.5 μg: 1.10
  FOLD CHANGES [Absorbance (abs; OD 600 nm)] No Treatment [Bacteria alone]: MIC Colistin: 17.44
  MIC: 6.25 µg/mL
[2]; 7023446108 [MCR 1−, E. Coli]
  FOLD CHANGES [Absorbance (abs; OD 600 nm)] No Treatment [Bacteria alone]: Colistin 0.5 μg: 1.15
  FOLD CHANGES [Absorbance (abs; OD 600 nm)] No Treatment [Bacteria alone]: MIC Colistin: 18.04
  MIC: 6.25 µg/mL
[2]; 7033607097 [MCR 1−, E. Coli]
  FOLD CHANGES [Absorbance (abs; OD 600 nm)] No Treatment [Bacteria alone]: Colistin 0.5 μg: 1.35
  FOLD CHANGES [Absorbance (abs; OD 600 nm)] No Treatment [Bacteria alone]: MIC Colistin: 15.21
  MIC: 6.25 µg/mL
[2]; [4]
  FOLD CHANGES [Absorbance (abs; OD 600 nm)] No Treatment [Bacteria alone]: Colistin 0.5 μg: 1.06
  FOLD CHANGES [Absorbance (abs; OD 600 nm)] No Treatment [Bacteria alone]: MIC Colistin: 17.67
  MIC: 6.25 µg/mL
[2]; [5]
  FOLD CHANGES [Absorbance (abs; OD 600 nm)] No Treatment [Bacteria alone]: Colistin 0.5 μg: 1.06
  FOLD CHANGES [Absorbance (abs; OD 600 nm)] No Treatment [Bacteria alone]: MIC Colistin: 16.97
  MIC: 6.25 µg/mL
[2]; ACBA 1003 (CI)
  FOLD CHANGES [Absorbance (abs; OD 600 nm)] No Treatment [Bacteria alone]: Colistin 0.5 μg: 1.26
  FOLD CHANGES [Absorbance (abs; OD 600 nm)] No Treatment [Bacteria alone]: MIC Colistin: 12.60
  MIC: 1.56 µg/mL
[2]; ACBA 1004 (CI)
  FOLD CHANGES [Absorbance (abs; OD 600 nm)] No Treatment [Bacteria alone]: Colistin 0.5 μg: 1.09
  FOLD CHANGES [Absorbance (abs; OD 600 nm)] No Treatment [Bacteria alone]: MIC Colistin: 23.71
  MIC: 1.56 µg/mL
[2]; ACBA 1005 (CI)
  FOLD CHANGES [Absorbance (abs; OD 600 nm)] No Treatment [Bacteria alone]: Colistin 0.5 μg: 1.02
  FOLD CHANGES [Absorbance (abs; OD 600 nm)] No Treatment [Bacteria alone]: MIC Colistin: 22.34
  MIC: 1.56 µg/mL
[2]; ACBA 1006 (CI)
  FOLD CHANGES [Absorbance (abs; OD 600 nm)] No Treatment [Bacteria alone]: Colistin 0.5 μg: 1.12
  FOLD CHANGES [Absorbance (abs; OD 600 nm)] No Treatment [Bacteria alone]: MIC Colistin: 23.81
  MIC: 1.56 µg/mL
[2]; ACBA 1010 (CI)
  FOLD CHANGES [Absorbance (abs; OD 600 nm)] No Treatment [Bacteria alone]: Colistin 0.5 μg: 1.13
  FOLD CHANGES [Absorbance (abs; OD 600 nm)] No Treatment [Bacteria alone]: MIC Colistin: 21.43
  MIC: 0.39 µg/mL
[2]; ACBA ATCC 19606
  FOLD CHANGES [Absorbance (abs; OD 600 nm)] No Treatment [Bacteria alone]: Colistin 0.5 μg: 2.04
  FOLD CHANGES [Absorbance (abs; OD 600 nm)] No Treatment [Bacteria alone]: MIC Colistin: 16.14
  MIC: 0.78 µg/mL
[2]; ACBA DR 43357
  FOLD CHANGES [Absorbance (abs; OD 600 nm)] No Treatment [Bacteria alone]: Colistin 0.5 μg: 1.06
  FOLD CHANGES [Absorbance (abs; OD 600 nm)] No Treatment [Bacteria alone]: MIC Colistin: 25.47
  MIC: 1.56 µg/mL
[2]; E. Coli ATCC 8739
  FOLD CHANGES [Absorbance (abs; OD 600 nm)] No Treatment [Bacteria alone]: Colistin 0.5 μg: 1.85
  FOLD CHANGES [Absorbance (abs; OD 600 nm)] No Treatment [Bacteria alone]: MIC Colistin: 20.68
  MIC: 0.78 µg/mL
[2]; E. Coli ATCC 10536
  FOLD CHANGES [Absorbance (abs; OD 600 nm)] No Treatment [Bacteria alone]: Colistin 0.5 μg: 1.11
  FOLD CHANGES [Absorbance (abs; OD 600 nm)] No Treatment [Bacteria alone]: MIC Colistin: 18.42
  MIC: 0.78 µg/mL
[2]; E. Coli ATCC 25922
  FOLD CHANGES [Absorbance (abs; OD 600 nm)] No Treatment [Bacteria alone]: Colistin 0.5 μg: 1.23
  FOLD CHANGES [Absorbance (abs; OD 600 nm)] No Treatment [Bacteria alone]: MIC Colistin: 18.24
  MIC: 0.78 µg/mL
[2]; E. Coli ATCC 35218
  FOLD CHANGES [Absorbance (abs; OD 600 nm)] No Treatment [Bacteria alone]: Colistin 0.5 μg: 1.31
  FOLD CHANGES [Absorbance (abs; OD 600 nm)] No Treatment [Bacteria alone]: MIC Colistin: 24.46
  MIC: 0.78 µg/mL
[2]; E. Coli CRE 11804
  FOLD CHANGES [Absorbance (abs; OD 600 nm)] No Treatment [Bacteria alone]: Colistin 0.5 μg: 1.19
  FOLD CHANGES [Absorbance (abs; OD 600 nm)] No Treatment [Bacteria alone]: MIC Colistin: 17.29
  MIC: 0.78 µg/mL
[2]; E. Coli CRE 17232
  FOLD CHANGES [Absorbance (abs; OD 600 nm)] No Treatment [Bacteria alone]: Colistin 0.5 μg: 1.31
  FOLD CHANGES [Absorbance (abs; OD 600 nm)] No Treatment [Bacteria alone]: MIC Colistin: 16.09
  MIC: 0.78 µg/mL
[2]; E. Coli CRE 17528
  FOLD CHANGES [Absorbance (abs; OD 600 nm)] No Treatment [Bacteria alone]: Colistin 0.5 μg: 1.45
  FOLD CHANGES [Absorbance (abs; OD 600 nm)] No Treatment [Bacteria alone]: MIC Colistin: 20.21
  MIC: 0.78 µg/mL
